Experimental findings from ChEMBL document CHEMBL4665827, “Discovery of Small-Molecule Inhibitors of Receptor Activator of Nuclear Factor-κB Ligand with a Superior Therapeutic Index” (J Med Chem, 2020) are described below.

Each structure is given as a SMILES string. Calls of active or inactive are those of the source. The calls are words filed in the database; no cut-off is given here.

In data set [1] the target is T1, Tumor necrosis factor ligand superfamily member 11 (Homo sapiens, UniProt O14788).
T1 sequence (O14788 whole entry): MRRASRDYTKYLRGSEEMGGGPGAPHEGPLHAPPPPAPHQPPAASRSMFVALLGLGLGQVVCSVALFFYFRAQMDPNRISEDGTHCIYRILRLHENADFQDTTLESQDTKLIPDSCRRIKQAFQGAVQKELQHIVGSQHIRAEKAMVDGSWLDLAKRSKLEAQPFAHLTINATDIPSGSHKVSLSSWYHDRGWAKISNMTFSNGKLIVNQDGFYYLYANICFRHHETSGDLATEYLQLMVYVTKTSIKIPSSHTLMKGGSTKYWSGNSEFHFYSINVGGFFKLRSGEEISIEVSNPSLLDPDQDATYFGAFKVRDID
Put plainly: Binding affinity to GST-fused human RANKL extracellular domain (Lys159 to Asp317 residues) expressed in Escherichia coli BL21(DE3) pLysS by fluorescence spectrophotometric assay.

The target of data set [2] is T2, Tumor necrosis factor ligand superfamily member 11 (Homo sapiens) (UniProt O14788).
T2 sequence (whole entry): T1 sequence (O14788 whole entry)
Put plainly: Inhibition of human RANKL-induced osteoclastogenesis in RANKL cultured mouse bone marrow cells assessed as reduction in RANKL/M-CSF-induced TRAP activity at 5 uM preincubated with RANKL for 1 hr followed by cell addition and subsequent media replenishment every 48 hrs for 4 days. The data set is classed as cell-based. The note with it: time 4.0 day.

Data set [3] is described as follows: Cytotoxicity against mouse BMMC assessed as reduction in cell viability measured after 48 hrs by MTT assay. Particulars: mouse BMMC (bone marrow cells), read-out: LC50. The data set is classed as cell-based. A general note: Formazan colour is commonly taken as a measure of viable cells.
A short description of data set [4]: Therapeutic index, ratio of LC50 for mouse bone marrow cells to IC50 for Inhibition of human RANKL-induced osteoclastogenesis in RANKL cultured mouse bone marrow cells. Type of data set: toxicity. Particulars: read-out: Ratio LC50/IC50.

Broadly, the Kd is the constant that tells how readily two partners part at equilibrium. As a reminder, the inhibition is the percentage by which the read-out fell short of the control. As to `O=C(c1coc2ccccc2c1=O)N1CCN(Cc2cn(-c3cccc(C(F)(F)F)c3)c3ccccc23)CC1`, the Kd in data set [1] (read-out: Kd) was 8.49 µM. For the same molecule, in data set [2], the inhibition entry is “Active”. In addition, in data set [3], the CC50 at 48 h is more than 20 µM.
Consider `O=C(c1ccc2ccccc2c1)N1CCN(Cc2cn(-c3cccc(C(F)(F)F)c3)c3ccccc23)CC1`, for which the Kd entry in data set [1] is listed as “Not Active”. In addition, the inhibition result in data set [2] is “inactive”.
`N#Cc1ccc(S(=O)(=O)N2CCN(C(=O)c3cn(S(=O)(=O)c4cccc([N+](=O)[O-])c4)c4ccccc34)CC2)cc1`: the selectivity ratio in data set [4] stood at 10.4. For the same molecule, the CC50 at 48 h in data set [3] was 52.6 µM.
Regarding `Cc1ccc2occ(CN3CCN(Cc4cn(-c5cccc(C(F)(F)F)c5)c5ccccc45)CC3)c(=O)c2c1`, the Kd in data set [1] (read-out: Kd) was more than 11 µM. For the same molecule, the inhibition entry in data set [2] is “inactive”.
For `Cc1cc2occ(C(=O)N3CCN(C(=O)c4cn(-c5cccc(C(F)(F)F)c5)c5ccccc45)CC3)c(=O)c2cc1C`, the Kd in data set [1] (read-out: Kd) worked out at 4.6 µM. In addition, the inhibition in data set [2] was determined as 100%. The CC50 at 48 h in data set [3] was less than 20 µM.
On to `O=C(NCCCNC(=O)c1cn(S(=O)(=O)c2ccccc2)c2ccccc12)c1coc2ccccc2c1=O`, for which the Kd entry in data set [1] was “Not Active”. In data set [2], the inhibition entry is “inactive”.
As to `O=C(c1coc2ccccc2c1=O)N1CCN(Cc2cn(-c3cccc(C(F)(F)F)c3)c3ccc([N+](=O)[O-])cc23)CC1`, in data set [1], the Kd result was “Not Active”. Also, the inhibition in data set [2] was 100%. For the same molecule, the CC50 at 48 h in data set [3] was less than 20 µM.
In the case of `CN(CCN(C)S(=O)(=O)c1ccccc1)C(=O)c1cn(S(=O)(=O)c2cccc([N+](=O)[O-])c2)c2ccccc12`, the selectivity ratio in data set [4] is more than 112. In addition, the CC50 at 48 h in data set [3] was more than 300 µM.
`O=C(c1coc2ccccc2c1=O)N1CCN(C(=O)c2cn(-c3cccc(C(F)(F)F)c3)c3ccc([N+](=O)[O-])cc23)CC1`: the Kd result in data set [1] is listed as “Not Active”. For the same molecule, the inhibition entry in data set [2] was “inactive”.
Take `O=C(c1coc2ccccc2c1=O)N1CCN(C(=O)c2cn(S(=O)(=O)c3cccc([N+](=O)[O-])c3)c3ccccc23)CC1`: in data set [1], the Kd entry is given as “Not Active”. Moreover, the inhibition in data set [2] worked out at 100%. In data set [3], the CC50 at 48 h was less than 20 µM.
Consider `CN(CCN(C)C(=O)c1cn(S(=O)(=O)c2cccc(N)c2)c2ccccc12)C(=O)c1coc2ccccc2c1=O`, for which, in data set [1] (read-out: Kd), the Kd amounted to 22.3 µM. In addition, in data set [2], the inhibition entry was “inactive”.
As to `O=C(c1ccccc1)N1CCN(C(=O)c2cn(-c3cccc(C(F)(F)F)c3)c3ccccc23)CC1`, the Kd result in data set [1] is listed as “Not Active”. Also, in data set [2], the inhibition entry was “inactive”.
For `CN(CCN(C)C(=O)n1ccnc1)C(=O)c1cn(S(=O)(=O)c2ccccc2)c2ccccc12`, the Kd result in data set [1] is listed as “Not Active”. In data set [2], the inhibition result was “inactive”.
The corresponding values for `O=C(NCCCNC(=O)c1cn(S(=O)(=O)c2ccccc2)c2ccccc12)c1ccccc1` are “Not Active” and “inactive”.
On to `O=C(c1cn(-c2cccc(C(F)(F)F)c2)c2ccccc12)N1CCN(C(=O)n2ccnc2)CC1`, for which the Kd in data set [1] (read-out: Kd) stood at 5.34 µM. Further, the inhibition entry in data set [2] was “Active”. Further, in data set [3], the CC50 at 48 h is less than 20 µM.
The corresponding values for `Cc1ccc2c(=O)c(CN(C)CCN(C)Cc3cn(S(=O)(=O)c4ccccc4)c4ccccc34)coc2c1` are 4.9 µM, 100% and less than 20 µM.
As to `CN(CCN(C)C(=O)c1cn(S(=O)(=O)c2ccccc2)c2ccccc12)C(=O)c1ccccc1`, the Kd in data set [1] (read-out: Kd) is more than 15 µM. In data set [2], the inhibition entry was “inactive”.
As to `Nc1cccc(S(=O)(=O)n2cc(C(=O)N3CCN(C(=O)c4coc5ccccc5c4=O)CC3)c3ccccc32)c1`, the Kd entry in data set [1] was “Not Active”. Further, the inhibition entry in data set [2] was “inactive”.
In the case of `O=C(c1cn(S(=O)(=O)c2cccc([N+](=O)[O-])c2)c2ccccc12)N1CCN(S(=O)(=O)c2cccc([N+](=O)[O-])c2)CC1`, the selectivity ratio in data set [4] came to 18.5. In addition, the CC50 at 48 h in data set [3] is 118 µM.
For `Cc1cc2occ(CN3CCN(Cc4cn(-c5cccc(C(F)(F)F)c5)c5ccccc45)CC3)c(=O)c2cc1C`, the Kd in data set [1] (read-out: Kd) was more than 10 µM. The inhibition in data set [2] is 100%. Moreover, the CC50 at 48 h in data set [3] was less than 20 µM.
Regarding `O=C(c1ccc2ccccc2c1)N1CCN(Cc2cn(-c3cccc(C(F)(F)F)c3)c3ccc([N+](=O)[O-])cc23)CC1`, the Kd result in data set [1] is on record as “Not Active”. Moreover, in data set [2], the inhibition entry is “Active”. In data set [3], the CC50 at 48 h was more than 20 µM.
Take `O=C(c1cccs1)N1CCN(C(=O)c2c[nH]c3ccc([N+](=O)[O-])cc23)CC1`: the Kd in data set [1] (read-out: Kd) is 15.8 µM. In data set [2], the inhibition entry was “inactive”.
Take `O=C(c1ccc2ccccc2c1)N1CCN(C(=O)c2cn(-c3cccc(C(F)(F)F)c3)c3ccccc23)CC1`: in data set [1], the Kd entry was “Not Active”. The inhibition result in data set [2] is “inactive”.
Consider `CN(CCN(C)C(=O)c1cn(S(=O)(=O)c2ccccc2)c2ccccc12)C(=O)c1ccccc1F`, for which the Kd in data set [1] (read-out: Kd) stood at 12.5 µM. In addition, the inhibition result in data set [2] is “Active”. Also, in data set [3], the CC50 at 48 h is more than 20 µM.
The corresponding values for `O=C(c1coc2ccccc2c1=O)N1CCN(C(=O)c2cn(S(=O)(=O)c3ccccc3)c3ccccc23)CC1` are 11 µM, “Active” and more than 20 µM.
For `O=C(c1coc2ccccc2c1=O)N1CCN(C(=O)c2cn(-c3cccc([N+](=O)[O-])c3)c3ccccc23)CC1`, in data set [1] (read-out: Kd), the Kd is more than 25 µM. Also, in data set [2], the inhibition result was “inactive”.
As to `CN(CCN(C)C(=O)c1cn(-c2cccc(C(F)(F)F)c2)c2ccc([N+](=O)[O-])cc12)C(=O)c1coc2ccccc2c1=O`, in data set [1] (read-out: Kd), the Kd turned out to be 2.82 µM. Also, the inhibition in data set [2] came to 100%. In data set [3], the CC50 at 48 h was less than 20 µM.
Consider `O=C(NCCCCNC(=O)c1cn(S(=O)(=O)c2ccccc2)c2ccccc12)c1ccc2ccccc2c1`, for which the Kd in data set [1] (read-out: Kd) came to 18.4 µM. Also, the inhibition result in data set [2] was “inactive”.
For `Nc1cccc(-n2cc(C(=O)N3CCN(C(=O)c4coc5ccccc5c4=O)CC3)c3ccccc32)c1`, the Kd in data set [1] (read-out: Kd) amounted to 19.1 µM. The inhibition result in data set [2] is “inactive”.
For `O=C(c1ccc2ccccc2c1)N1CCN(C(=O)c2cn(S(=O)(=O)c3ccccc3)c3ccccc23)CC1`, the Kd result in data set [1] is on record as “Not Active”. Besides, in data set [2], the inhibition result is “inactive”.
As to `O=C(c1ccccc1F)N1CCN(C(=O)c2c[nH]c3ccc([N+](=O)[O-])cc23)CC1`, the Kd in data set [1] (read-out: Kd) came to 12.8 µM. Also, the inhibition entry in data set [2] is “Active”. In data set [3], the CC50 at 48 h was more than 20 µM.
Take `O=C(NCCNC(=O)c1cn(S(=O)(=O)c2ccccc2)c2ccccc12)c1ccc2ccccc2c1`: the Kd in data set [1] (read-out: Kd) came out at 3.55 µM. The inhibition entry in data set [2] is “inactive”.
Regarding `Nc1cccc(-n2cc(C(=O)N3CCN(C(=O)C4COc5ccccc5C4=O)CC3)c3cc(N)ccc32)c1` (stereo unspecified), the Kd result in data set [1] is listed as “Not Active”. Moreover, the inhibition result in data set [2] was “inactive”.
`CN(CCN(C)C(=O)c1cn(-c2cccc(N)c2)c2ccccc12)C(=O)c1coc2ccccc2c1=O`: in data set [1] (read-out: Kd), the Kd worked out at 17.6 µM. Further, the inhibition result in data set [2] is “inactive”.
With `Nc1cccc(-n2cc(C(=O)N3CCN(C(=O)c4coc5ccccc5c4=O)CC3)c3cc(N)ccc32)c1`, the Kd in data set [1] (read-out: Kd) was determined as 9.31 µM. The inhibition result in data set [2] was “Active”. Further, the CC50 at 48 h in data set [3] is more than 20 µM.
`O=C(c1ccccc1)N1CCN(Cc2cn(-c3cccc(C(F)(F)F)c3)c3ccccc23)CC1`: the dissociation constant (Kd) in data set [1] (read-out: Kd) stood at 18.6 µM. The inhibition entry in data set [2] was “Active”. In addition, the CC50 at 48 h in data set [3] was more than 20 µM.
